According to US20210169958A1, “Preparation Method of Agrocybe Aegerita Extract and its use in Preparing Medicine for Lowering Uric Acid” (Guangdong Institute of Microbiology (Guang Dong Detection …, priority 2018, published 2021):

Experiments:
hyperuricemia mice [1] = test: Urine uric acid level in hyperuricemia mice; format: in vivo, Kunming mice; conditions: normal 605, model 293 μmol/L
Description: (§1) Except for the normal control group by intraperitoneal injection and intragastric administration of distilled water, the other groups were intraperitoneally injected with oxazine potassium salt at a dose of 100 mg/kg/d, and simultaneously intragastrically with a dose of 600 mg/kg/d hypoxanthine for modeling. […] Low, middle, and high-dose Agrocybe aegerita water extract administration group (Agrocybe aegerita water extract, AAW) were respectively 50, 100, 200 mg/kg concentration of the Agrocybe aegerita water extract prepared in Example 2 100 mg/kg/d for intragastric administration. […] The blood samples were separated and the serum was stored at −20° C. The organs of the mice were removed, including the liver, spleen, and kidneys, and washed with physiological saline solution. Then blot it dry with an ordinary filter and weigh it. […] (8) Statistical analysis is performed using the professional data processing program SPSS (Release 11.5, SPSS Inc., 2001). All data are expressed as mean±standard error (S.D.) and analyzed by one-way analysis of variance (ANOVA), and group means were compared by two-tailed Student's t test. Differences with statistical significance (P<0.05 or P<0.01) are indicated by the following symbols: There is a differences from the normal control group: *P<0.05, **P<0.01. […]

[2] = test system: OAT1 (organic anion transporter 1); test: Western blot of kidney samples, OAT1 protein expression; format: in vivo, mouse; conditions: compared with the model group, each dose group
Description: Except for the normal control group by intraperitoneal injection and intragastric administration of distilled water, the other groups were intraperitoneally injected with oxazine potassium salt at a dose of 100 mg/kg/d, and simultaneously intragastrically with a dose of 600 mg/kg/d hypoxanthine for modeling. […] Low, middle, and high-dose Agrocybe aegerita water extract administration group (Agrocybe aegerita water extract, AAW) were respectively 50, 100, 200 mg/kg concentration of the Agrocybe aegerita water extract prepared in Example 2 100 mg/kg/d for intragastric administration. The normal control group and the hyperuricemia model control group were gavage with the same volume of pure water for 7 consecutive days, and in the 1, 3, 5, and 7 days to weigh the mice. […]
(7) Western blot analysis of kidney samples. Using GAPDH (glyceraldehyde-3-phosphate dehydrogenase) as an internal control, the expression of proteins including URAT1 (urate transporter 1) and OAT1 (organic anion transporter 1) were detected.
(§2) (8) Statistical analysis is performed using the professional data processing program SPSS (Release 11.5, SPSS Inc., 2001). All data are expressed as mean±standard error (S.D.) and analyzed by one-way analysis of variance (ANOVA), and group means were compared by two-tailed Student's t test. […]

hyperuricemia mice [3] = test: Serum uric acid level in potassium oxonate + hypoxanthine hyperuricemia mice; format: in vivo, Kunming mice; conditions: 7 days, normal 196, model 313 μmol/L
Description: as §1

URAT1 = URAT1 expression in mouse kidney by ELISA kit; format: in vivo; conditions: allopurinol group; normal 96.95, model 104.85 pg/mL
Description: Except for the normal control group by intraperitoneal injection and intragastric administration of distilled water, the other groups were intraperitoneally injected with oxazine potassium salt at a dose of 100 mg/kg/d, and simultaneously intragastrically with a dose of 600 mg/kg/d hypoxanthine for modeling. […] Low, middle, and high-dose Agrocybe aegerita water extract administration group (Agrocybe aegerita water extract, AAW) were respectively 50, 100, 200 mg/kg concentration of the Agrocybe aegerita water extract prepared in Example 2 100 mg/kg/d for intragastric administration. The normal control group and the hyperuricemia model control group were gavage with the same volume of pure water for 7 consecutive days, and in the 1, 3, 5, and 7 days to weigh the mice.
(4) Take the organs obtained in step (2) and calculate the organ coefficients (liver coefficient, spleen coefficient and kidney coefficient) by dividing […]. […]
as §2

hyperuricemia mice [4] = test: Serum urea nitrogen (BUN) level, renal function of hyperuricemia mice; format: in vivo, Kunming mice; conditions: allopurinol group; normal 4.47, model 5.96 mmol/L
Description: as §1

hyperuricemia mice [5] = test: Kidney (renal) coefficient and kidney observation of mice; format: in vivo, Kunming mice
Description: (§3) Except for the normal control group by intraperitoneal injection and intragastric administration of distilled water, the other groups were intraperitoneally injected with oxazine potassium salt at a dose of 100 mg/kg/d, and simultaneously intragastrically with a dose of 600 mg/kg/d hypoxanthine for modeling. […] Low, middle, and high-dose Agrocybe aegerita water extract administration group (Agrocybe aegerita water extract, AAW) were respectively 50, 100, 200 mg/kg concentration of the Agrocybe aegerita water extract prepared in Example 2 100 mg/kg/d for intragastric administration. […] The blood samples were separated and the serum was stored at −20° C. The organs of the mice were removed, including the liver, spleen, and kidneys, and washed with physiological saline solution. Then blot it dry with an ordinary filter and weigh it. […] The supernatant was retained for XOD activity analysis and Western blot analysis. (8) Statistical analysis is performed using the professional data processing program SPSS (Release 11.5, SPSS Inc., 2001). All data are expressed as mean±standard error (S.D.) and analyzed by one-way analysis of variance (ANOVA), and group means were compared by two-tailed Student's t test. Differences with statistical significance (P<0.05 or P<0.01) are indicated by the following symbols: There is a differences from the normal control group: *P<0.05, **P<0.01. […]

[6] = Body weight change of mice; format: in vivo, Kunming mice; conditions: compared with normal group, 7 days, all doses
Description: Except for the normal control group by intraperitoneal injection and intragastric administration of distilled water, the other groups were intraperitoneally injected with oxazine potassium salt at a dose of 100 mg/kg/d, and simultaneously intragastrically with a dose of 600 mg/kg/d hypoxanthine for modeling. […] Low, middle, and high-dose Agrocybe aegerita water extract administration group (Agrocybe aegerita water extract, AAW) were respectively 50, 100, 200 mg/kg concentration of the Agrocybe aegerita water extract prepared in Example 2 100 mg/kg/d for intragastric administration. […] (8) Statistical analysis is performed using the professional data processing program SPSS (Release 11.5, SPSS Inc., 2001). All data are expressed as mean±standard error (S.D.) and analyzed by one-way analysis of variance (ANOVA), and group means were compared by two-tailed Student's t test. Differences with statistical significance (P<0.05 or P<0.01) are indicated by the following symbols: There is a differences from the normal control group: *P<0.05, **P<0.01. There is a difference between the control and PO and HX-induced hyperuricemia model group, #P<0.05, ##P<0.01.

hyperuricemia mice [7] = test: Liver coefficient of mice; format: in vivo, Kunming mice; conditions: all treatment groups
Description: as §3

serum BUN (hyperuricemia mice [4])	renal coefficient (hyperuricemia mice [5]; allopurinol group, normal 1.25%)	kidney observation (hyperuricemia mice [5]; not observed in other groups)	liver coefficient, effect on liver function (hyperuricemia mice [7])	Compound	urine uric acid level (hyperuricemia mice [1]; 7.8 mg/kg)	OAT1 protein expression (Western blot, gray analysis) [2]	blood uric acid of hyperuricemia mice (hyperuricemia mice [3]; 7.8 mg/kg intragastric)	urine uric acid level (hyperuricemia mice [1]; allopurinol group (5 mg/kg per method))	URAT1 protein expression level (ELISA, kidney) (URAT1)	effect on body weight [6]	blood uric acid of hyperuricemia mice (hyperuricemia mice [3]; 5 mg/kg intragastric)
				CCc1oc2ccccc2c1C(=O)c1cc(Br)c(O)c(Br)c1 [benzbromarone]	408 µmol/L	increase the expression of OAT1	206 µmol				
4.74 mmol/L	1.42%	vesicular nephritis was observed	little effect on liver function	Oc1ncnc2[nH]ncc12 [allopurinol]				267 µmol/L	151.96 pg/mL	inhibited the weight increase of mice	105 µmol
